Reference: ChEMBL document CHEMBL3352333, “Structural evidence of N6-isopentenyladenosine as a new ligand of farnesyl pyrophosphate synthase” (J Med Chem, 2014)
Activity calls are given as the source filed them. The calls are words filed in the database; no cut-off is given here.

What was measured:
[1] = molecular target: T1, Farnesyl pyrophosphate synthase (Homo sapiens, UniProt P14324); experiment: Binding affinity to FPPS (unknown origin) expressed in Escherichia coli BL21(DEscherichia ) assessed as binding constant of proton H2/H8 of purine ring by saturation transfer difference NMR analysis
T1 sequence (P14324 whole entry): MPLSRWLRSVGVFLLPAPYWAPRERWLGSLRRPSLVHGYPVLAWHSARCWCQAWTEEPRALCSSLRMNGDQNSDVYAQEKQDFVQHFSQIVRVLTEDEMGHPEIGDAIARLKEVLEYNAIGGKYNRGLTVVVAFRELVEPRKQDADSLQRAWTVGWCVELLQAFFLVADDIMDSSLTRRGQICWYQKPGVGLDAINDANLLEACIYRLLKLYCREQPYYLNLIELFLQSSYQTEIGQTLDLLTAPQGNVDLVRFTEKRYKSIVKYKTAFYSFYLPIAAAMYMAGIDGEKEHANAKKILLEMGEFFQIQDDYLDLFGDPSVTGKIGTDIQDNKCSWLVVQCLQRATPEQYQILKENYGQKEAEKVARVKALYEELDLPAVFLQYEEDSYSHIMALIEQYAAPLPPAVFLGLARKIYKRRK

[2] = molecular target: T1, Farnesyl pyrophosphate synthase; experiment: Binding affinity to FPPS (unknown origin) expressed in Escherichia coli BL21(DEscherichia ) assessed as binding constant of proton H11 of isopentenylic moiety by saturation transfer difference NMR analysis
[3] = molecular target: T2, Farnesyl pyrophosphate synthase (Homo sapiens) (UniProt P14324); experiment: Binding affinity to FPPS (unknown origin) expressed in Escherichia coli BL21(DEscherichia ) at protein/ligand 1:10 to 1:100 molar ratio by 2D COSY NMR analysis
T2 sequence (whole entry): T1 sequence (P14324 whole entry)

[4] = molecular target: T2, Farnesyl pyrophosphate synthase (Homo sapiens); experiment: Binding affinity to FPPS (unknown origin) expressed in Escherichia coli BL21(DEscherichia ) at protein/ligand 1:10 to 1:100 molar ratio by WaterLOGSY 1D 1H NMR analysis
[5] = molecular target: T2, Farnesyl pyrophosphate synthase (Homo sapiens); experiment: Binding affinity to FPPS (unknown origin) expressed in Escherichia coli BL21(DEscherichia ) at protein/ligand 1:10 to 1:100 molar ratio by saturation transfer difference NMR analysis
[6] = molecular target: T1, Farnesyl pyrophosphate synthase; experiment: Binding affinity to FPPS (unknown origin) expressed in Escherichia coli BL21(DEscherichia ) assessed as binding constant of proton H12 of isopentenylic moiety by saturation transfer difference NMR analysis
[7] = molecular target: T1, Farnesyl pyrophosphate synthase; experiment: Binding affinity to FPPS (unknown origin) expressed in Escherichia coli BL21(DEscherichia ) assessed as binding constant of proton H14-H15 of isopentenylic moiety by saturation transfer difference NMR analysis
[8] = molecular target: T2, Farnesyl pyrophosphate synthase (Homo sapiens); experiment: Binding affinity to FPPS (unknown origin) expressed in Escherichia coli BL21(DEscherichia ) at protein/ligand 1:10 to 1:100 molar ratio by WaterLOGSY NMR analysis

Kd [1]: 2.02 mM
Kd [2]: 0.55 mM
Activity [3]: Active
Activity [4]: Active
Activity [5]: Active
Kd [6]: 2.21 mM
Kd [7]: 1.21 mM
Activity [8]: Active
SMILES: CC(C)=CCNc1ncnc2c1ncn2[C@@H]1O[C@H](CO)[C@@H](O)[C@H]1O [RIBOPRINE]
